Source: patent US11685732B2, “MYST family histone acetyltransferase inhibitors” (Epizyme, Inc., priority 2017, dated 2023)
Where two headings read alike, the source gives them in different places.

Assays:
KAT-5 = KAT-5 (Homo sapiens (Human), UniProt Q92993); assay: KAT-5 biochemical inhibition assay (SAMDI mass spectrometry)
Experimental: (§1) KAT-5. Enzyme assay buffer was 50 mM Tris pH 8.0, 0.002% Tween20, 0.005% bovine skin gelatin, and 1 mM dithiothreitol (DTT). For determination of IC50 values, compounds were serially diluted with 2% (v/v) DMSO in the final reaction, pre-incubating each dilution of each compound with 40 μL of assay buffer containing KAT-5 enzyme (9 nM final concentration). 10 μL of assay buffer containing 1 μM peptide substrate and 0.5 μM acetyl coenzyme A (final concentrations) was added. Reactions (50 μL total) were then carried out at 25° C. for 90 minutes. Reactions were terminated by the addition of 0.5% formic acid (final concentration), and a sample of each reaction was analyzed by SAMDI Tech, Inc. (Chicago, Ill.) using self-assembled monolayer desorption/ionization time-of-flight mass spectrometry (Mrksich, M. (2008) Mass spectrometry of self-assembled monolayers: a new tool for molecular surface science. ACS Nano 2, 7-18).

KAT-6A = KAT-6A (Homo sapiens (Human), UniProt Q92794); assay: KAT-6A biochemical inhibition assay (SAMDI mass spectrometry)
Experimental: as §1, with “KAT-6A. Enzyme” for “KAT-5. Enzyme”, “containing KAT-6A” for “containing KAT-5”, “enzyme (12.5” for “enzyme (9”, “and 1” for “and 0.5”

KAT-7 = KAT-7 (Homo sapiens (Human), UniProt O95251); assay: KAT-7 biochemical inhibition assay (SAMDI mass spectrometry)
Experimental: as §1, with “KAT-7. Enzyme” for “KAT-5. Enzyme”, “containing KAT-7” for “containing KAT-5”, “enzyme (6” for “enzyme (9”, “and 2” for “and 0.5”, “for 120” for “for 90”

KAT-8 = KAT-8 (Homo sapiens (Human), UniProt Q9H7Z6); assay: KAT-8 biochemical inhibition assay (SAMDI mass spectrometry)
Experimental: as §1, with “KAT-8. Enzyme” for “KAT-5. Enzyme”, “containing KAT-8” for “containing KAT-5”, “enzyme (12.5” for “enzyme (9”, “and 5” for “and 0.5”

Chain of KAT-7 (O95251 other isoform, or with tags, fused parts or gaps): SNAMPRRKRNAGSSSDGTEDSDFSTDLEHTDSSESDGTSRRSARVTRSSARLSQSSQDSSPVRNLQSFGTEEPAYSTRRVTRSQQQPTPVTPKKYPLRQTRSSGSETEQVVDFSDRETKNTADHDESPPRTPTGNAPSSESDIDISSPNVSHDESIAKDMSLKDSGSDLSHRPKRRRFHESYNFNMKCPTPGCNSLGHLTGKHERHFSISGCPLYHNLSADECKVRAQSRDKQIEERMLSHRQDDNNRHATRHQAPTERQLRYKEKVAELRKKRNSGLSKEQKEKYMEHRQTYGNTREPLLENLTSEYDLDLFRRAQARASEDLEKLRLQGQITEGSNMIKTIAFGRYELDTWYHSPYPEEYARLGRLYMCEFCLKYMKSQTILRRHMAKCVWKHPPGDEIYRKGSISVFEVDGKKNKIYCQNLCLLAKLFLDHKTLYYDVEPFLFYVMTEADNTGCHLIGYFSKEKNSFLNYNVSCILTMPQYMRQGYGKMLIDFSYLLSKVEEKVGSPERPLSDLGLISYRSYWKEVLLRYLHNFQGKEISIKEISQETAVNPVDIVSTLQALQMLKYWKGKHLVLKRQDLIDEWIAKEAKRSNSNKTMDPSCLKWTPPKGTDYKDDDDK
Chain of KAT-6A (Q92794 other isoform, or with tags, fused parts or gaps): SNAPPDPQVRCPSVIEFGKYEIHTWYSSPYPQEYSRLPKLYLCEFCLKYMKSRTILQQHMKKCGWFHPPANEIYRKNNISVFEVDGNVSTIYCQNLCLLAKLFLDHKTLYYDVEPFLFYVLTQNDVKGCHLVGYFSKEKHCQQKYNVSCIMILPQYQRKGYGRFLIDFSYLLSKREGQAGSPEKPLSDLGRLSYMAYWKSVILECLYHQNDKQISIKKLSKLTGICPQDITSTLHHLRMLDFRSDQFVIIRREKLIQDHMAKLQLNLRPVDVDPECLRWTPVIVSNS
Chain of KAT-8 (Q9H7Z6 other isoform, or with tags, fused parts or gaps): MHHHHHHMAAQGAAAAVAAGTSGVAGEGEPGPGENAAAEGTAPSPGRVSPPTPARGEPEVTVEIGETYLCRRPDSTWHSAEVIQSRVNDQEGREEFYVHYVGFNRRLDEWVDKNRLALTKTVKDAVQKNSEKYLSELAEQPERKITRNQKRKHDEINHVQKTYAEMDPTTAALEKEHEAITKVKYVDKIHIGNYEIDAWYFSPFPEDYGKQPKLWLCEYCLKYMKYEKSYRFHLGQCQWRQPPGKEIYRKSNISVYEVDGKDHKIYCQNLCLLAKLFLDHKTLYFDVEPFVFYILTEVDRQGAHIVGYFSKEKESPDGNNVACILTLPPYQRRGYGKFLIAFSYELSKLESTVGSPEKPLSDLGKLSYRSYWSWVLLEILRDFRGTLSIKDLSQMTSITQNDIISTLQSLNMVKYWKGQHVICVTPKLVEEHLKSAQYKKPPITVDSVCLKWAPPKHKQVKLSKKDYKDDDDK
Chain of KAT-5 (Q92993 other isoform, or with tags, fused parts or gaps): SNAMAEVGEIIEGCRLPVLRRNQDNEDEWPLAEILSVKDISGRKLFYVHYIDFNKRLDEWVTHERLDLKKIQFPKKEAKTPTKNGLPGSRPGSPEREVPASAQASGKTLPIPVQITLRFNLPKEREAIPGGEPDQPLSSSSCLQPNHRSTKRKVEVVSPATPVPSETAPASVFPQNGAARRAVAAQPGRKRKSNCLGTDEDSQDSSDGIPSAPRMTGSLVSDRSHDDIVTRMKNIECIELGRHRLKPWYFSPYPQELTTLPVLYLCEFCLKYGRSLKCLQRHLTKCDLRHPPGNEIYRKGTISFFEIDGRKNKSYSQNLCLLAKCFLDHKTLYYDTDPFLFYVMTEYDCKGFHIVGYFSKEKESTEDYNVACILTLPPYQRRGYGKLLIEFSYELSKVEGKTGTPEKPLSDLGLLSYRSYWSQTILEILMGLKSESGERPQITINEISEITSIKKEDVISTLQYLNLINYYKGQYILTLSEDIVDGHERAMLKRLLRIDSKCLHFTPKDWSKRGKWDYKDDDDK

Compound	IC50 (KAT-5; Table 5) [µM]	IC50 (KAT-6A; Table 5) [µM]	IC50 (KAT-7; Table 5) [µM]	IC50 (KAT-8) [µM]	IC50 (KAT-5) [µM]	IC50 (KAT-6A) [µM]	IC50 (KAT-7) [µM]
Cc1cccc(-c2cc(Cl)c(F)c(C(=O)NNS(=O)(=O)CC3CN(C(=O)OC(C)(C)C)C3)c2)c1 [Compound A-12]	10 to 50	10 to 50	≤ 10	–	–	–	–
Cc1cccc(-c2cc(Cl)c(F)c(C(=O)NNS(=O)(=O)CC3CNC3)c2)c1 [Compound A-13]	> 100	> 100	10 to 50	–	–	–	–
Cc1cccc(-c2cc(Cl)c(F)c(C(=O)NNS(=O)(=O)CC3CN(C(=O)OC(C)(C)C)CCN3C(=O)OC(C)(C)C)c2)c1 (stereo not drawn) [Compound A-14]	> 100	> 100	10 to 50	–	–	–	–
Cc1cccc(-c2cc(Cl)c(F)c(C(=O)NNS(=O)(=O)CC3CNCCN3)c2)c1 (stereo not drawn) [Compound A-15]	> 100	> 100	≤ 10	–	–	–	–
COc1cccc(S(=O)(=O)NNC(=O)c2cc(-c3ccccc3)cc(Cl)c2F)c1 [Compound A-16]	≤ 10	≤ 1	≤ 1	–	–	–	–
Cc1cccc(-c2cc(Cl)c(F)c(C(=O)NNS(=O)(=O)CC3CN(C)CCN3C)c2)c1 (stereo not drawn) [Compound A-17]	> 100	10 to 50	≤ 10	–	–	–	–
Cc1cccc(-c2cc(Cl)c(F)c(C(=O)NNS(=O)(=O)C3CCC(NC(=O)OC(C)(C)C)C3)c2)c1 (stereo not drawn) [Compound A-19]	10 to 50	50 to 100	≤ 10	–	–	–	–
Cc1cccc(-c2cc(Cl)c(F)c(C(=O)NNS(=O)(=O)C3CCC(N)C3)c2)c1 (stereo not drawn) [Compound A-20]	> 100	> 100	10 to 50	–	–	–	–
Cc1cccc(-c2cc(Cl)c(F)c(C(=O)NNS(=O)(=O)CC3CCCCNC3)c2)c1 (stereo not drawn) [Compound A-21]	> 100	> 100	≤ 10	–	–	–	–
Cc1cccc(-c2cc(Cl)c(F)c(C(=O)NNS(=O)(=O)CC3CCCCN(C(=O)OC(C)(C)C)C3)c2)c1 (stereo not drawn) [Compound A-22]	10 to 50	10 to 50	≤ 1	–	–	–	–
Cc1cccc(-c2cc(Cl)c(F)c(C(=O)NNS(=O)(=O)C(C)C3CCCN(C(=O)OC(C)(C)C)C3)c2)c1 (stereo not drawn) [Compound A-23]	> 100	> 100	≤ 1	–	–	–	–
Cc1cccc(-c2cc(Cl)c(F)c(C(=O)NNS(=O)(=O)CC3CN(C)CCN3)c2)c1 (stereo not drawn) [Compound A-24]	50 to 100	10 to 50	≤ 10	–	–	–	–
Cc1cccc(-c2cc(Cl)c(F)c(C(=O)NNS(=O)(=O)C(C)C3CCCNC3)c2)c1 (stereo not drawn) [Compound A-25]	> 100	> 100	10 to 50	–	–	–	–
CNCCCS(=O)(=O)NNC(=O)c1cc(-c2cccc(C)c2)ccc1F [Compound A-26]	> 100	> 100	> 100	–	–	–	–
CNCCCS(=O)(=O)NNC(=O)c1cc(-c2cccc(C)c2)cc(Cl)c1F [Compound A-27]	> 100	> 100	> 100	–	–	–	–
Cc1cc(-c2cccc(F)c2)cc(C(=O)NNS(=O)(=O)c2cccc(O)c2)c1F [Compound A-28]	≤ 1	≤ 1	≤ 1	–	–	–	–
O=C(NNS(=O)(=O)c1cccc(O)c1)c1cc(-c2ccccc2)cc(F)c1F [Compound A-29]	≤ 10	≤ 1	≤ 1	–	–	–	–
O=C(NNS(=O)(=O)c1cccc(O)c1)c1cc(-c2ccccc2)cc(Cl)c1F [Compound A-31]	≤ 1	≤ 1	≤ 1	–	–	–	–
Cc1cccc(-c2cc(Cl)c(F)c(C(=O)NNS(=O)(=O)CC3CNCCN3C)c2)c1 (stereo not drawn) [Compound A-32]	> 100	> 100	10 to 50	–	–	–	–
CNC(=O)N[C@H]1C[C@@H](CS(=O)(=O)NNC(=O)c2cc(-c3cn(C)cn3)cc(Cl)c2F)C1 [Compound I-197]	–	–	–	10 to 50	–	–	–

Compound	IC50 (KAT-5; Table 5) [µM]	IC50 (KAT-6A; Table 5) [µM]	IC50 (KAT-7; Table 5) [µM]	IC50 (KAT-8) [µM]	IC50 (KAT-5) [µM]	IC50 (KAT-6A) [µM]	IC50 (KAT-7) [µM]
Cn1cnc(-c2cc(Cl)c(F)c(C(=O)NNS(=O)(=O)C[C@H]3CC[C@H]4CC[C@@H]3N4C(=O)OC(C)(C)C)c2)c1 [Compound I-259]	–	–	–	10 to 50	< 10	10 to 50	–
C[C@@H]1CNC[C@H]1CS(=O)(=O)NNC(=O)c1cc(-c2cn(C)cn2)cc(Cl)c1F [Compound I-263]	–	–	–	10 to 50	10 to 50	10 to 50	–
Cn1cnc(-c2cc(Cl)c(F)c(C(=O)NNS(=O)(=O)CC3CCCC(NC(=O)Cc4ccccn4)C3)c2)c1 (stereo not drawn) [Compound I-268]	–	–	–	10 to 50	< 10	< 10	–
Cn1cnc(-c2cc(Cl)c(F)c(C(=O)NNS(=O)(=O)C[C@H]3CC[C@H](NC(=O)c4ccncc4)CC3)c2)c1 [Compound I-269]	–	–	–	10 to 50	< 10	< 10	–
COC1CCCC(CS(=O)(=O)NNC(=O)c2cc(-c3cn(C)cn3)cc(Cl)c2F)C1 (stereo not drawn) [Compound I-270]	–	–	–	10 to 50	< 10	< 10	–
COc1ccc(COc2cccc(S(=O)(=O)NNC(=O)c3cc(-c4cn(C)cn4)cc(Cl)c3F)c2)cc1 [Compound I-397]	–	–	–	> 100	–	–	–
Cn1cnc(-c2cc(Cl)c(F)c(C(=O)NNS(=O)(=O)CC3CCC(OCCO)CC3)c2)c1 (stereo not drawn) [Compound I-467]	–	–	–	–	< 10	< 10	< 10
Cn1cnc(-c2cc(Cl)c(F)c(C(=O)NNS(=O)(=O)C[C@H]3CC[C@H](N(C)CC(F)(F)F)CC3)c2)c1 [Compound I-471]	–	–	–	–	< 10	< 10	< 10
CN(CC(F)(F)F)C1CCCC(CS(=O)(=O)NNC(=O)c2cc(-c3cn(C)cn3)cc(Cl)c2F)C1 (stereo not drawn) [Compound I-473]	–	–	–	–	< 10	10 to 50	< 10
Cn1cnc(-c2cc(Cl)c(F)c(C(=O)NNS(=O)(=O)Cc3nn(C)cc3Cl)c2)c1 [Compound I-474]	–	–	–	–	< 10	< 10	< 10
Cn1cnc(-c2cc(C(=O)NNS(=O)(=O)CC3CCCCC3)c(F)c(Cl)c2N(C(=O)OC(C)(C)C)C(=O)OC(C)(C)C)c1 [Compound I-475]	–	–	–	–	> 100	> 100	50 to 100
Cn1cnc(-c2cc(C(=O)NNS(=O)(=O)CC3CCCCC3)c(F)c(Cl)c2N)c1 [Compound I-476]	–	–	–	–	< 10	< 10	< 10
Cn1cnc(-c2cc(Cl)c(F)c(C(=O)NNS(=O)(=O)Cc3c(Cl)cnn3C)c2)c1 [Compound I-477]	–	–	–	–	< 10	10 to 50	–
CCc1cccc(S(=O)(=O)NNC(=O)c2cc(-c3ccccn3)cc(Cl)c2F)c1 [Compound I-478]	–	–	–	–	< 10	< 10	< 10
Cn1cnc(-c2cc(Cl)c(F)c(C(=O)NNS(=O)(=O)Cc3ccn(C)n3)c2)c1 [Compound I-479]	–	–	–	–	< 10	< 10	< 10
Cn1cnc(-c2cc(Cl)c(F)c(C(=O)NNS(=O)(=O)Cc3ccnn3C)c2)c1 [Compound I-480]	–	–	–	–	10 to 50	10 to 50	< 10
O=C(NNS(=O)(=O)c1cccc(O)c1)c1cc(-c2ccccn2)cc(Cl)c1F [Compound I-481]	–	–	–	–	< 10	< 10	< 10
Cn1cnc(-c2cc(Cl)c(F)c(C(=O)NNS(=O)(=O)Cc3ccnn3C)c2)c1 [Compound I-482]	–	–	–	–	10 to 50	10 to 50	–
CCc1cc(O)cc(S(=O)(=O)NNC(=O)c2cc(-c3ccccn3)cc(Cl)c2F)c1 [Compound I-483]	–	–	–	–	< 10	< 10	< 10
